Laboratory results reported in patent US11999806B2, “Broad-spectrum polypeptide against enterovirus and application thereof” (WUHAN INSTITUTE OF VIROLOGY, CHINESE ACADEMY OF SCIENCES, priority 2018, dated 2024).
Where “and” joins values, the source holds several entries; their conditions need not be identical. Equal entries are not always repeated. No end group written: not given here.

Test system: EV71
Assay: Anti-EV71 efficiency in RD cells, viral RNA by qRT-PCR
Format: cell-based, enterovirus 71
Conditions: for Relative viral RNA amount (%): 24 h, control infected without polypeptide
Description: • (1) RD cells were plated in five 100 mm dishes. • (2) After the cells reached 70%-80% confluence, the MEM medium containing 10% serum was replaced with a MEM medium containing 2% serum. […] When the changes were obvious, samples were collected as follows. • (4) The supernatant in the 100 mm dish was transferred into a 15 ml centrifuge tube, and centrifuged at 500 g for 5 min. • (5) The supernatant was transferred into a new 15 ml centrifuge tube, and filtered through 0.22 μm filter membrane with a 50 ml syringe. • (6) RNA was extracted from 100 μl of the supernatant obtained in step (5) and subjected to one step qRT-PCR to measure the virus titer, and the previously extracted virus RNA with known titer was handled together as a control. 3. Measure Antiviral Efficiency of Polypeptide in RD Cells. • (1) Different cells were plated in 24-well cell plates. • (2) After the cells reached 70%-80% confluence, the MEM medium containing 10% serum was replaced with a MEM medium containing 2% serum (0.5 ml/well), and 5 μl of 10^6 PFU/mL EV71 viruses per well were added. • (3) After 1 h, different polypeptides were added at a final concentration of 0.01 μM, 0.1 μM, 1 μM, 10 μM, and 50 μM, respectively. • (4) Samples were collected 24 hours after virus infection, and RNA was extracted with total RNA extraction kit as follows. • (5) The supernatant in the wells was discarded, then 350 μl of TRK Lysis Buffer was added to each well and the plate was shaken on the shaker for 5 minutes. • (6) 350 μl of 70% ethanol (DEPC-treated) was added to the well and the plate was shaken on the shaker for 5 minutes. • (7) The mixture in the well was transferred to a RNA extraction column and centrifuged at 12,000 g for 1 min. • (8) The solution collected in the recovery tube was added back to the column and centrifuged at 12,000 g for 1 min. • (9) RNA washing buffer 1 was added to the column and centrifuged at 12,000 g for 30 s. • (10) RNA washing buffer 2 was added to the column and centrifuged at 12,000 g for 1 min. • (11) Step (10) was repeated once. • (12) The column was centrifuged at 12000 g for 2 min to completely remove residual RNA washing buffer. • (13) 50 μl DEPC-treated H2O was added to the column and centrifuge at 12,000 g for 2 min. • (14) 2 μl RNA sample was used according to one step qRT-PCR kit for fluorescence quantification experiment.
RD cells added with R8 penetrating peptide (sequence: RRRRRRRR) were used as a negative control.
RD cells were used to test the antiviral effect of polypeptide P2. EV71 (MOI=0.1) was added to RD cells at 80% confluence. After 1 hour of infection, polypeptide P2 was added at concentrations of 0.01 μM, 0.1 μM, 1 μM, 10 μM, and 50 μM, respectively. The samples were collected 24 hours later, and the total RNA was extracted. The level of viral genomic RNA was detected by qRT-PCR. The cells infected with the same type virus and added with penetrating peptide R8 were used as a control group.
• (1) RD cells were plated in five 100 mm dishes. • (2) After the cells reached 70%-80% confluence, the MEM medium containing 10% serum was replaced with a MEM medium containing 2% serum. […] When the changes were obvious, samples were collected as follows. • (4) The supernatant in the 100 mm dish was transferred into a 15 ml centrifuge tube, and centrifuged at 500 g for 5 min. • (5) The supernatant was transferred into a new 15 ml centrifuge tube, and filtered through 0.22 μm filter membrane with a 50 ml syringe. • (6) RNA was extracted from 100 μl of the supernatant obtained in step (5) and subjected to one step qRT-PCR to measure the virus titer, and the previously extracted virus RNA with known titer was handled together as a control. 3. […]

## CC[C@@H](C)[C@@H](NC(=O)[C@H]1CCCN1C(C)=O)C(=O)N[C@@H](C(=O)N[C@H](Cc1c[nH]c2ccccc12)C(=O)NCC(=O)N[C@H](CCC(N)=O)C(=O)N[C@H](CCC(=O)O)C(=O)N[C@H](CCCNC(=N)N)C(=O)N[C@H](CS)C(=O)N[C@H](Cc1ccc(O)cc1)C(=O)N[C@H](CCC(N)=O)C(=O)N[C@H](CCCNC(=N)N)C(=O)N[C@@H](C(=O)N[C@H](CCC(=O)O)C(=O)N[C@H](CCC(=O)O)C(=O)N1CCC[C@@H]1C(=O)N1CCC[C@@H]1C(=O)N[C@H](CCCNC(=N)N)C(=O)N[C@H](CCCNC(=N)N)C(=O)N[C@H](CCCNC(=N)N)C(=O)N[C@H](CCC(N)=O)C(=O)N[C@H](CCCNC(=N)N)C(=O)N[C@H](CCCNC(=N)N)C(=O)N[C@H](CCCCN)C(=O)N[C@H](CCCCN)C(=O)N[C@H](CCCNC(=N)N)C(=O)NCC(=O)N[C@H](Cc1ccc(O)cc1)C(N)=O)C(C)C)[C@H](C)CC [3A-EP-DRI]
EV71 MOI=0.1, 0.01 μM
  Relative viral RNA amount (%): 75.93% and 73.36% and 72.89%
EV71 MOI=0.1, 0.1 μM
  Relative viral RNA amount (%): 72.52% and 70.59% and 61.38%
EV71 MOI=0.1, 1 μM
  Relative viral RNA amount (%): 100.5% and 95.84% and 90.71%

## CCCCCCCCCCCCCCCC(=O)NCCCC[C@H](NC(=O)CCOCCOCCOCCOCCNC(=O)[C@H](CCCCN)NC(=O)[C@H](C)NC(=O)[C@@H]1CCCN1C(=O)[C@@H](NC(=O)[C@@H](NC(=O)[C@H](Cc1c[nH]c2ccccc12)NC(=O)CNC(=O)[C@H](CCC(N)=O)NC(=O)[C@H](CCC(=O)O)NC(=O)[C@H](CCCNC(=N)N)NC(=O)[C@H](CS)NC(=O)[C@H](Cc1ccc(O)cc1)NC(=O)[C@H](CCC(N)=O)NC(=O)[C@H](CCCNC(=N)N)NC(=O)[C@@H](NC(=O)[C@H](CCC(=O)O)NC(=O)[C@@H](N)CCC(=O)O)C(C)C)[C@@H](C)CC)[C@@H](C)CC)C(=O)O [3A-EP-PEG4-PA]
EV71 MOI=0.1, 0.01 μM
  Relative viral RNA amount (%): 72.5% and 68.12% and 59.1%
EV71 MOI=0.1, 0.1 μM
  Relative viral RNA amount (%): 69.96% and 68.69% and 67.81%
EV71 MOI=0.1, 1 μM
  Relative viral RNA amount (%): 107.1% and 89.26% and 75.24%

## RRRRRRRREEVRQYCRDQ [P2]
read-out: IC50 against EV71 by qRT-PCR
  IC50: 6.37 µM
